Data set [1] addresses T1, hTLR9 (Homo sapiens, UniProt Q9NR96).
T1 sequence (Q9NR96 26-1032): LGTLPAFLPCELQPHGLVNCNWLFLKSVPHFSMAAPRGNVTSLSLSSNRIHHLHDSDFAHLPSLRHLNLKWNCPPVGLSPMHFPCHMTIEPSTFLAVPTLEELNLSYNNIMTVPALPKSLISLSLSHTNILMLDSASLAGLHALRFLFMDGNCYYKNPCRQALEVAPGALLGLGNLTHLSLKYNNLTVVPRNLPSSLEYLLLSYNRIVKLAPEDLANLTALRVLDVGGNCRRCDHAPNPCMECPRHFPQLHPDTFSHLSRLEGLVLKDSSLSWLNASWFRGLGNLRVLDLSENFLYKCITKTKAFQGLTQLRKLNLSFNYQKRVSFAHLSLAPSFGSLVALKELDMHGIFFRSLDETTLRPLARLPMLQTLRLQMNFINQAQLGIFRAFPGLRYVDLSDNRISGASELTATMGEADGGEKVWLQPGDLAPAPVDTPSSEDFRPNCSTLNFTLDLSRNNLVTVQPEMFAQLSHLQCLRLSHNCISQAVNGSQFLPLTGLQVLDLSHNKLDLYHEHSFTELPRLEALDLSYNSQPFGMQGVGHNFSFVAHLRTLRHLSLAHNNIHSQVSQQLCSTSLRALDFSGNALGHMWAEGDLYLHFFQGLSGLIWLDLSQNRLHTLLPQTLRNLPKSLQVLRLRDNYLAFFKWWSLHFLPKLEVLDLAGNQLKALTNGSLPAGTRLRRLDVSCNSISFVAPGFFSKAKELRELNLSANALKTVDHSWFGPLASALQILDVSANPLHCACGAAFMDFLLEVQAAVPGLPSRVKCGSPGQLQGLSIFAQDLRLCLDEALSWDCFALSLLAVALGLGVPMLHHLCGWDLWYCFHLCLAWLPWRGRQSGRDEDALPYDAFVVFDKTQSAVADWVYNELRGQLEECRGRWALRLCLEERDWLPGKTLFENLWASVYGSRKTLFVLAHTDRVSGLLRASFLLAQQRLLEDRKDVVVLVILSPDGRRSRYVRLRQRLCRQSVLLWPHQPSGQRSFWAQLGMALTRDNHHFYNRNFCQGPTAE
Also on record: host or cells: HEK. To be noted: data disclosed in US20150105370; read-out: HEK/hTLR9 IC50; cited from earlier work.

In data set [2] the target is T2, CYP2C9 (Homo sapiens, UniProt P11712).
T2 construct: tissue BD-Gentest 452117; host or cells: human liver microsomes
Nature of the data set: CYP inhibition assay in human liver microsome, CYP2C9. Type of data set: in vitro ADME. To be noted: percentage inhibition, substrate Diclofenac 5 μM, <0: not or weak inhibitor. Here is the method:
(§1) This is a high throughput screening assay used for assessment of reversible inhibition of CYP2C9, CYP2D6, and CYP3A4 activity of test compounds in human liver microsome (HLM) in early discovery stage.
(§2) Procedure 10 mM DMSO stock solutions of test compounds were diluted in DMSO to generate 2 mM intermediate stock solution. 250 nL of intermediate stock solution were transferred in duplicate into 3 separate 384 well microtitre plates (assay-ready plates). A mixture of HLM and each substrate was made up. 45 μL of HLM substrate mix was then transferred to each well of an assay ready plate and mixed. The negative (solvent) and positive controls (standard inhibitor for each CYP) were included in each assay ready plate. The assay ready plate was warmed to 37° C. in an incubator over 10 minutes. 5 μL pre-warmed NADPH regenerating system was added to each incubation well to start the reaction. Final incubation volume was 50 μL. The assay plate then was placed back in the 37° C. incubator. After incubation (10 minutes for CYP2D6) for 5 minutes, incubates were quenched by addition of 50 μL 100% acetonitrile containing internal standards (400 ng/mL 13C6-4′-OH-Diclofenac, 20 ng/mL D3-Dextrorphan and 20 ng/mL D4-1′OH-Midazolam). The supernatants were collected for RapidFire/MS/MS analysis.
(§3) RapidFire online solid phase extraction/sample injection system (Agilent) coupled with API4000 triple quadrupole mass spectrometer (AB Sciex) were used for sample analysis. The mobile phase composed of acetonitrile and water supplemented with 0.1% formic acid. A C4 solid phase extraction cartridge is used for sample separation. MS detection is achieved in positive ion MRM mode.
(§4) Data analysis Peak areas for substrate, metabolite and internal standard are determined using the RapidFire integrator software (version 3.6.12009.12296). Peak area ratios (PAR) of metabolite and internal standard (stable-labelled metabolite) are then calculated. The measurement window for each experiment is then defined: PAR (0% activity)=average PAR for all incubations containing concentrated inhibitor; Par (100% activity)=average PAR for all incubations containing no inhibitor (DMSO controls); % Activity (test inhibitor)=[PAR (test inhibitor)-PAR (0% activity)]/[PAR (100% activity)-PAR (0% activity)]; % Inhibition (test inhibitor)=100-% Activity (test inhibitor).
Background: Liver microsomes are vesicles of endoplasmic reticulum, rich in cytochrome P450 enzymes.

In data set [3] the target is T3, CYP2D6 (Homo sapiens, UniProt P10635).
T3 construct: tissue BD-Gentest 452117; host or cells: human liver microsomes
Nature of the data set: CYP inhibition assay in human liver microsome, CYP2D6. To be noted: percentage inhibition, substrate Dextromethorphan 5 μM, <0: not or weak inhibitor. Type of data set: in vitro ADME. Here is the method: as §1, §2, §3, §4

Data set [4] deals with T4, CYP3A4 (Homo sapiens, UniProt P08684).
T4 construct: tissue BD-Gentest 452117; host or cells: human liver microsomes
Briefly: CYP inhibition assay in human liver microsome, CYP3A4. Type of data set: in vitro ADME. To be noted: percentage inhibition, substrate Midazolam 5 μM, <0: not or weak inhibitor. Here is the method:
as §1, §2, §3, §4

The target in data set [5] is T5, hERG channel (Homo sapiens, UniProt Q12809).
T5 construct: expressed in transfected cells
Briefly: hERG channel inhibition assay (patch-clamp, CHO hERG cells). Type of data set: cell-based. To be noted: CHO hERG cells, whole-cell patch-clamp; for IC20: human, CHO cells stably expressing hERG. Here is the method: hERG Channel Inhibition Assay:
The hERG K+ channels were cloned in humans and stably expressed in a CHO (Chinese hamster ovary) cell line. CHOhERG cells were used for patch-clamp (voltage-clamp, whole-cell) experiments. Cells were stimulated by a voltage pattern to activate hERG channels and conduct IKhERG Currents (rapid delayed outward rectifier potassium current of the hERG channel). After the cells were stabilized for a few minutes, the amplitude and kinetics of IKhERG were recorded at a stimulation frequency of 0.1 Hz, (6 bpm). Thereafter, the test compound was added to the preparation at increasing concentrations. For each concentration, an attempt was made to reach a steady-state effect, usually, this was achieved within 3-10 min at which time the next highest concentration was applied. The amplitude and kinetics of IKhERG are recorded in each concentration of the drug which were compared to the control values (taken as 100%). (references: Redfern W S, Carlsson L, Davis A S, Lynch W G, MacKenzie I, Palethorpe S, Siegl P K, Strang I, Sullivan A T, Wallis R, Camm A J, Hammond T G. 2003; Relationships between preclinical cardiac electrophysiology, clinical QT interval prolongation and torsade de pointes for a broad range of drugs: evidence for a provisional safety margin in drug development. Cardiovasc. Res. 58:32-45, Sanguinetti M C, Tristani-Firouzi M. 2006; hERG potassium channels and cardiac arrhythmia. Nature 440:463-469, Webster R, Leishman D, Walker D. 2002; Towards a drug concentration effect relationship for QT prolongation and torsades de pointes. Curr. Opin. Drug Discov. Devel. 5:116-26).
A general note: Block of hERG is tested as a sign of cardiac risk.

Data set [6] concerns the target T6, human TLR8 (Homo sapiens, UniProt Q9NR97).
T6 sequence (Q9NR97 27-1041): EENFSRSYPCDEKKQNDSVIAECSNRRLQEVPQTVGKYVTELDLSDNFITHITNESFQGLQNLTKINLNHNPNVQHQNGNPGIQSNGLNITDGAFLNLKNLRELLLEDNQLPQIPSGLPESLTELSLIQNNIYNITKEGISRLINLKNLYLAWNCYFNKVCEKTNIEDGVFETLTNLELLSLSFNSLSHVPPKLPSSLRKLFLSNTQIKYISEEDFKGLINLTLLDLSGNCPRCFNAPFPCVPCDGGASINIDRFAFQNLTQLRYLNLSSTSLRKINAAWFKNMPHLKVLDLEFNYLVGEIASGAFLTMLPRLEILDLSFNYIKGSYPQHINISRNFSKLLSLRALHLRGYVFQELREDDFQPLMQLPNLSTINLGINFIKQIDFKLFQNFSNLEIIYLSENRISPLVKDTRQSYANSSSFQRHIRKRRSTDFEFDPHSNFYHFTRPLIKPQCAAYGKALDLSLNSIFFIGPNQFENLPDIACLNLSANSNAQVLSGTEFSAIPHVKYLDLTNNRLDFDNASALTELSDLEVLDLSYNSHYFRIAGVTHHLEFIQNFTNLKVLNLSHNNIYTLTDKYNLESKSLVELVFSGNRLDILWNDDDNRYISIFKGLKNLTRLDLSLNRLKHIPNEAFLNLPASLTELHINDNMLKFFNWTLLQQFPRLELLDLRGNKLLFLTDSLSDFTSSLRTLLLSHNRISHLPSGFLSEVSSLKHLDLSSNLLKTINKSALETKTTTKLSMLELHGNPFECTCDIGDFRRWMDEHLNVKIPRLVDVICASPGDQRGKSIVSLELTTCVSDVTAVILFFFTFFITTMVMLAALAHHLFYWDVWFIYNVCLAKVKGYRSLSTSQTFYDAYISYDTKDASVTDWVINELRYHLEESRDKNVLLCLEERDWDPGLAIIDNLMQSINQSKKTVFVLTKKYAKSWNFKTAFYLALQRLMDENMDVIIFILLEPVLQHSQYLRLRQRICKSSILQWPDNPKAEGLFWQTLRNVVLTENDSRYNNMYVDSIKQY
Briefly: HEK293-Blue-hTLR-8 cells assay. To be noted: HEK293-Blue-hTLR8 cells, R848 stimulation, 20 hrs, SEAP reporter; read-out: HEK/hTLR8 IC50. The class given is cell-based. The text has this: HEK293-Blue-hTLR-8 cells assay:
A stable HEK293-Blue-hTLR-8 cell line was purchased from InvivoGen (Cat. #: hkb-htlr8, San Diego, California, USA). These cells were originally designed for studying the stimulation of human TLR8 by monitoring the activation of NF-κB. A SEAP (secreted embryonic alkaline phosphatase) reporter gene was placed under the control of the IFN-β minimal promoter fused to five NF-κB and AP-1-binding sites. The SEAP was induced by activating NF-κB and AP-1 via stimulating HEK-Blue hTLR8 cells with TLR8 ligands. Therefore the reporter expression was declined by TLR8 antagonist under the stimulation of a ligand, such as R848, for incubation of 20 hrs. The cell culture supernatant SEAP reporter activity was determined using QUANTI-Blue™kit (Cat. #: rep-qb1, Invivogen, San Diego, Ca, USA) at a wavelength of 640 nm, a detection medium that turns purple or blue in the presence of alkaline phosphatase.
HEK293-Blue-hTLR8 cells were incubated at a density of 250,000˜450,000 cells/mL in a volume of 170 μL in a 96-well plate in Dulbecco's Modified Eagle's medium (DMEM) containing 4.5 g/L glucose, 50 U/mL penicillin, […], […], 2 mM L-glutamine, 10% (v/v) heat-inactivated fetal bovine serum with addition of 20 μL test compound in a serial dilution in the presence of final DMSO at 1% and 10 μL of 60 uM R848 in above DMEM, perform incubation under 37° C. in a CO2 incubator for 20 hrs. Then 20 μL of the supernatant from each well was incubated with 180 μL Quanti-blue substrate solution at 37° C. for 2 hrs and the absorbance was read at 620-655 nm using a spectrophotometer. The signaling pathway that TLR8 activation leads to downstream NF-κB activation has been widely accepted, and therefore similar reporter assay was modified for evaluating TLR8 antagonist.

The text below walks through data of patent publication US12421252B2, “Spiro (isobenzofuranazetidine) compounds for the treatment of autoimmune disease” (Hoffmann-La Roche Inc., priority 2020, dated 2025).

Broadly, the IC20 is the concentration at which the effect reaches the 20% level. A low value points to an effect from little substance.

T5 sequence (Q12809 whole entry): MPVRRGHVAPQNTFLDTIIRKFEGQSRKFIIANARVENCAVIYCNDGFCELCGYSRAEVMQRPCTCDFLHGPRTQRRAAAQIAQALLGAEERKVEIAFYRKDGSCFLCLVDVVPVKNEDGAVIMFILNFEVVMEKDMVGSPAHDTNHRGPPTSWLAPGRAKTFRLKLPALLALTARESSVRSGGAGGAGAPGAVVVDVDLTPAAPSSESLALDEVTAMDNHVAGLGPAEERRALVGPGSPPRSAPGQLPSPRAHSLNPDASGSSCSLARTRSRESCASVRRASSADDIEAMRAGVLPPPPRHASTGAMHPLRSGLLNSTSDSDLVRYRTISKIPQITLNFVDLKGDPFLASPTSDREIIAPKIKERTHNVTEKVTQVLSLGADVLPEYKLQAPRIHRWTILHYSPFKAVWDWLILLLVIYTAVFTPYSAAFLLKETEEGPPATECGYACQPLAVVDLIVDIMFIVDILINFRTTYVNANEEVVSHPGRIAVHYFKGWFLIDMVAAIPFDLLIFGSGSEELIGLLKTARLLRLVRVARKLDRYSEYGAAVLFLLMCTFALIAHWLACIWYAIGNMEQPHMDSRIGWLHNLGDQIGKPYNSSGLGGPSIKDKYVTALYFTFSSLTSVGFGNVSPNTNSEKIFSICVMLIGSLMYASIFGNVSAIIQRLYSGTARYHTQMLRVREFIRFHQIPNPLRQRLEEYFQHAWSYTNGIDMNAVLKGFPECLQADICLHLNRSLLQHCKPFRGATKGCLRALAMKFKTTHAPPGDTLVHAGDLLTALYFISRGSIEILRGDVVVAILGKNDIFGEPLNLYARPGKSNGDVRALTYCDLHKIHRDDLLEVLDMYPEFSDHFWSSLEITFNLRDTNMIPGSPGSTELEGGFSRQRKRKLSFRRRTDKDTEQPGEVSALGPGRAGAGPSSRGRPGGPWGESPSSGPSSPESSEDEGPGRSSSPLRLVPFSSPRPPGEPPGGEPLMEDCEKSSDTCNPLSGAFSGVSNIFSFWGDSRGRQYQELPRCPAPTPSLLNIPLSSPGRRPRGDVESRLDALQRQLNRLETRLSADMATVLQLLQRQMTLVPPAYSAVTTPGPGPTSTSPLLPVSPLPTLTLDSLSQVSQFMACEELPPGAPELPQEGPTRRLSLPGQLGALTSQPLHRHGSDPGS
T2 sequence (P11712 whole entry): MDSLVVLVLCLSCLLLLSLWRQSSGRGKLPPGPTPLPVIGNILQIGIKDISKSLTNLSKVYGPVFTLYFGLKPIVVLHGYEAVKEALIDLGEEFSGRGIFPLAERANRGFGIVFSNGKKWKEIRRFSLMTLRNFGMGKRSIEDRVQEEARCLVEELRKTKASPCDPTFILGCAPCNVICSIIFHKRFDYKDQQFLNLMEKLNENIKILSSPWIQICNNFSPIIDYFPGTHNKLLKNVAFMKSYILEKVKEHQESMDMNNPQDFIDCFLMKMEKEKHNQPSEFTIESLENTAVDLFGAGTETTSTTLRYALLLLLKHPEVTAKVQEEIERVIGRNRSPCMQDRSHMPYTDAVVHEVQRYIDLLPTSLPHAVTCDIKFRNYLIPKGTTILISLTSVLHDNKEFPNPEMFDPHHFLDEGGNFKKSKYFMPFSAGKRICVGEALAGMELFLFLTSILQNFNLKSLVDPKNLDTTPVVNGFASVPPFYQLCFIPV
T3 sequence (P10635 whole entry): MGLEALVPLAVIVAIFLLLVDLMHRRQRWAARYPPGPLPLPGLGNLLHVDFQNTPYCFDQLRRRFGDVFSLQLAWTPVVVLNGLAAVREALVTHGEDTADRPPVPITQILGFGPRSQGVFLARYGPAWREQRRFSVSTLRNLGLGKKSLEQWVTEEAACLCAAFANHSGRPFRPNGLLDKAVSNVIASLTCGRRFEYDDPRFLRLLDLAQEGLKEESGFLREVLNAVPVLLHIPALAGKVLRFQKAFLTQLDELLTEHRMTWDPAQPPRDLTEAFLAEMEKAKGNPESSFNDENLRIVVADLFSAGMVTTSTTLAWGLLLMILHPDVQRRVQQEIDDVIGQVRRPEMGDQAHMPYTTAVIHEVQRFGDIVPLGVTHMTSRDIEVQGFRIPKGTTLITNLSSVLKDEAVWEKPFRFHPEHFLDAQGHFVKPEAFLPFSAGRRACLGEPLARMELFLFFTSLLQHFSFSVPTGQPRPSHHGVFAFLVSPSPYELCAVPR
T4 sequence (P08684 whole entry): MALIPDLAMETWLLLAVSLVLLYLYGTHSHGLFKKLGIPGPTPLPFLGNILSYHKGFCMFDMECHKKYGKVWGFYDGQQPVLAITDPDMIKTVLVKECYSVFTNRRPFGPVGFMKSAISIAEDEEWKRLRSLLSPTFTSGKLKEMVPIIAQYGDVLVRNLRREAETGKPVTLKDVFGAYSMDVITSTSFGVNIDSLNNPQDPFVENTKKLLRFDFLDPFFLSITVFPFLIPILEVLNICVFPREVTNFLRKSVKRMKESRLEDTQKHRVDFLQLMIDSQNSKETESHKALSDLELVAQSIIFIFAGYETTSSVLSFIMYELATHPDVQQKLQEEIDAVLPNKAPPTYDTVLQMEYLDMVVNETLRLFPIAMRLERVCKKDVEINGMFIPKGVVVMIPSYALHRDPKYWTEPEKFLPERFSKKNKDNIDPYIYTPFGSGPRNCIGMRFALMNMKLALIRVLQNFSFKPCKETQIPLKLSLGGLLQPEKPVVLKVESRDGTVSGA

In the case of `C[C@@H]1CN(c2ccc(C#N)c3ncccc23)C[C@H](CN2CC[C@@H](NC(=O)c3ccccc3)C2)O1` [ER-894544], the IC50 in data set [1] was over 6.2 µM.
Consider `C[C@@H]1CN(c2ccc(C#N)n3nccc23)C[C@H](CN2CC3(C2)OCc2cc(N4CC5(CN(C)C5)C4)ccc23)O1` [Example 8, 4-[(2R,6S)-2-methyl-6-[[6-(6-methyl-2,6-diazaspiro[3.3]heptan-2-yl)spiro[1H-isobenzofuran-3,3′-azetidine]-1′-yl]methyl]morpholin-4-yl]pyrazolo[1,5-a]pyridine-7-carbonitrile], for which, in data set [2], the “CYP (%) 2C9” value is −8.5%. Also, the “CYP (%) 2D6” value in data set [3] was determined as 5%. Besides, the “CYP (%) 3A4” value in data set [4] is given as −8.5%.
With `Cc1nn(C)cc1S(=O)(=O)NC1CCN(C[C@H]2CN(c3ccc(C#N)c4ncccc34)C[C@@H](C)O2)CC1` [ER-894160], the IC50 in data set [1] was over 10 µM.
As to `[2H]c1ccc2c(N3C[C@H](CN4CC5(C4)OCc4cc(N6CC(N)C6)ccc45)O[C@H](C)C3)ccc(C#N)c2n1` [Example 14, 5-[(2S,6R)-2-[[6-(3-aminoazetidin-1-yl)spiro[1H-isobenzofuran-3,3′-azetidine]-1′-yl]methyl]-6-methyl-morpholin-4-yl]-2-deuterio-quinoline-8-carbonitrile], in data set [5], the IC50 was over 20 µM and the IC20 is over 10 µM.
With `[2H]c1ccc2c(N3C[C@H](CN4CC5(C4)OCc4cc(N6CC7(CNCCO7)C6)ccc45)O[C@H](C)C3)ccc(C#N)c2n1` [Example 15, 2-deuterio-5-[(2R,6S)-2-methyl-6-[[6-(5-oxa-2,8-diazaspiro[3.5]nonan-2-yl)spiro[1H-isobenzofuran-3,3′-azetidine]-1′-yl]methyl]morpholin-4-yl]quinoline-8-carbonitrile], in data set [6], the IC50 amounted to 9 nM.
For `[2H]c1ccc2c(N3C[C@H](CN4CC5(C4)OCc4cc(N6CC(C)(N)C6)ccc45)O[C@H](C)C3)ccc(C#N)c2n1` [Example 11, 5-[(2S,6R)-2-[[6-(3-amino-3-methyl-azetidin-1-yl)spiro[1H-isobenzofuran-3,3′-azetidine]-1′-yl]methyl]-6-methyl-morpholin-4-yl]-2-deuterio-quinoline-8-carbonitrile], in data set [5], the IC50 is over 20 µM and it took 6.2 µM to reach the 20% level (IC20). For the same compound, the “CYP (%) 2C9” value in data set [2] was 4%. Moreover, the “CYP (%) 2D6” value in data set [3] is listed as 5.5%. Also, the “CYP (%) 3A4” value in data set [4] is 12%.
